Measured values reported in ChEMBL document CHEMBL5678802, “Small-molecule p21-activated kinase inhibitor PF-3758309 is a potent inhibitor of oncogenic signaling and tumor growth” (Proc Natl Acad Sci U S A, 2010).
Active and inactive are the calls of the source. The rule behind the calls is not given here.

What was measured:
[1] = system: HCT-116; test: Effect on phosphorylated GEF-H1 level in human HCT-116 cells at 1 uM incubated for 15 mins by Western blot analysis; format: functional, cell-based
[2] = system: HCT-116; test: Effect on phosphorylated PAK4 level in human HCT-116 cells at 1 uM incubated for 15 mins by Western blot analysis; format: functional, cell-based
[3] = target: T1, Serine/threonine-protein kinase PAK 4 (Homo sapiens, UniProt O96013); test: Inhibition of PAK4 Kinase domain (291 to 591 residues) (unknown origin) transfected in TR-293-KDG cells using GEFH1 as substrate assessed as inhibition of PAK4-dependent phosphorylation of GEFH1 at S810 residue incubated for 3 hrs by ELISA; format: cell-based
T1 sequence (O96013 whole entry, the tested form may be a part): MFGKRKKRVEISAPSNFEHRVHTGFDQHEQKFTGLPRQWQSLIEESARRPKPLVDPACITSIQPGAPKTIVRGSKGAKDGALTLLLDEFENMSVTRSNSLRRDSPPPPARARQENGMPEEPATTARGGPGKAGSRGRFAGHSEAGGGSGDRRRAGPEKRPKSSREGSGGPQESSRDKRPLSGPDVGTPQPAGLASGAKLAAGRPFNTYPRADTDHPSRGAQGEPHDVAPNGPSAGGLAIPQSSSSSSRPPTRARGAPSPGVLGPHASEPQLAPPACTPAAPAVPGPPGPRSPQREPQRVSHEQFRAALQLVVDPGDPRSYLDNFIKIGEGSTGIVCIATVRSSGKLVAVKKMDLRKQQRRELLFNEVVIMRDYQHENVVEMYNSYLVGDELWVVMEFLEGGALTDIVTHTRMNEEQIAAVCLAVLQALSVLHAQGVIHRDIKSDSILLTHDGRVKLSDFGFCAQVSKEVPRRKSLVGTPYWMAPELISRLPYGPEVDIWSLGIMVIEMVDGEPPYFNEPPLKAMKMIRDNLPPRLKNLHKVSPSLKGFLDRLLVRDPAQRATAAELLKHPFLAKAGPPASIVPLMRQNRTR

[4] = target: T1, Serine/threonine-protein kinase PAK 4; test: Inhibition of N-terminal 6His-tagged human recombinant PAK4 kinase domain (300 to 591 residues) using EVPRRKSLVGTPYWM peptide as substrate assessed as inhibition constant in presence of ATP by biochemical assay

IC50 [3] [µM]	Ki [4] [µM]	Compound	Activity [1]	inhibition [2]
–	–	COc1ccc(C2=NC(c3ccc(Cl)cc3)C(c3ccc(Cl)cc3)N2C(=O)N2CCNC(=O)C2)c(OC(C)C)c1 (centres undefined)	inactive	inactive
10	52	C[C@@H]1CN(C(=O)N2Cc3c(NC(=O)c4ccccn4)n[nH]c3C2(C)C)[C@@H](C)CN1CC1CCOCC1	–	–
